Test results from US20230062119A1, “USE OF BIOMARKERS IN IDENTIFYING PATIENTS THAT WILL BE RESPONSIVE TO TREATMENT WITH A PRMT5 INHIBITOR” (Merck Sharp & Dohme LLC, priority 2019, published 2023).
pEC50: −log10 of the molar value. Read-outs that look alike come from different tables or passages of the source.

Target: T1, Full-length (FL)-PRMT5-MEP50 enzyme complex (Homo sapiens, UniProt O14744)
T1 construct: Full-length (FL)-PRMT5-MEP50 enzyme complex (recombinant proteins from baculovirus-transfected Sf21 cells: FL-PRMT5; MW=73837 kDa and FL-MEP50; MW=38614); made in house; host or cells: baculovirus-transfected Sf21 insect cells
Experiment: PRMT5-MEP50 Enzyme Methylation Assay
Format: biochemical
Settings: 1.0 nM PRMT5-MEP50, 75 nM biotinylated peptide, 15 μM SAM
Procedure: PRMT5-MEP50 biochemical assay is a direct measurement of the methylation activity of the enzyme complex on a short peptide substrate derived from the N-terminus of H4 histone. Methylation experiment is performed with recombinant PRMT5-MEP50 protein complex. The assessment of inhibitory effect of small molecules is measured by the effectiveness of the compounds to inhibit this reaction (EC50).
In this assay, the potency (EC50) of each compound was determined from a twenty-point (1:2 serial dilution; top compound concentration of 100000 nM) titration curve using the following outlined procedure. To each well of a white ProxiPlus 384 well-plate, 100 nL of compound (1% DMSO in final assay volume of 10 μL) was dispensed, followed by the addition of 8 μL of 1× assay buffer (50 mM Bicine pH 8.0, 1 mM DTT, 0.004% Tween20, 0.01% BSA) containing 1.25 nM of Full-length (FL)-PRMT5-MEP50 enzyme complex (recombinant proteins from baculovirus-transfected Sf21 cells: FL-PRMT5; MW=[…] and FL-MEP50; MW=38614) and 1 μL of 150 μM S-(5′-Adenosyl)-L-Methionine Chloride (SAM). Plates were sealed and placed in a 37° C. humidified chamber for a 60 minutes pre-incubation with compound. Subsequently, each reaction was initiated by the addition of 1 μL 1× assay buffer containing 750 nM biotinylated H4R3(Mel) peptide. The final reaction in each well of 10 μL consists of 1.0 nM PRMT5-MEP50, 75 nM biotinylated-peptide, and 15 μM SAM. Methylation reactions proceeded for 150 minutes in a sealed plate at 37° C. Reactions were immediately quenched by the addition of 1 μL of 5% formic acid. Plates were then frozen and shipped to SAMDI™ Tech Inc. to determine the percent conversion from H4R3(Mel) to H4R3(Me2). Dose-response curves were generated by plotting percent effect (% product conversion; Y-axis) vs. Log 10 compound concentrations (X-axis). EC50 values were determined by non-linear regression according to models for either sigmoidal (4 parameters) or biphasic (7 parameters) dose-response curves.

[1] = one EC50: 4 parameters single site sigmoidal model, EC50 1: first value of 7 parameters biphasic model, read-out: Enzyme Methylation Assay (EC50 or EC50 1)
[2] = second EC50 of 7 parameters biphasic model, read-out: Enzyme Methylation Assay (EC50 2)

T1 sequence (O14744 whole entry): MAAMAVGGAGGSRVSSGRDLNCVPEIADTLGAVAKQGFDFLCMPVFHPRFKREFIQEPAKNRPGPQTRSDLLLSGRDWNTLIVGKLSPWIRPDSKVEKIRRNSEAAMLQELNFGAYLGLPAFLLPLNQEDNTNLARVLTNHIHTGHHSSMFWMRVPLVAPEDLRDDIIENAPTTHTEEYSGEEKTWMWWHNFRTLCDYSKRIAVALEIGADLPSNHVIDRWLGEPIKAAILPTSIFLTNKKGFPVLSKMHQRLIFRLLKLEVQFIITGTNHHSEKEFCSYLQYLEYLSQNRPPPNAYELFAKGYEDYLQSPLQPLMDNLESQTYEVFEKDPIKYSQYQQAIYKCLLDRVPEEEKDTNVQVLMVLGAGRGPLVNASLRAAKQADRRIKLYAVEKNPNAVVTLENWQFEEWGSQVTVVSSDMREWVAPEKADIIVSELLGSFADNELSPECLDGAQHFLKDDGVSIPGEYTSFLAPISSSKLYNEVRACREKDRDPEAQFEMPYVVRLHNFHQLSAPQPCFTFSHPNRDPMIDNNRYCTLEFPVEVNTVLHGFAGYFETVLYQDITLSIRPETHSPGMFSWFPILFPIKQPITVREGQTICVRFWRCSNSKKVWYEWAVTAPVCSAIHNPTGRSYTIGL
T1 sequence (Q9BQA1 whole entry partner): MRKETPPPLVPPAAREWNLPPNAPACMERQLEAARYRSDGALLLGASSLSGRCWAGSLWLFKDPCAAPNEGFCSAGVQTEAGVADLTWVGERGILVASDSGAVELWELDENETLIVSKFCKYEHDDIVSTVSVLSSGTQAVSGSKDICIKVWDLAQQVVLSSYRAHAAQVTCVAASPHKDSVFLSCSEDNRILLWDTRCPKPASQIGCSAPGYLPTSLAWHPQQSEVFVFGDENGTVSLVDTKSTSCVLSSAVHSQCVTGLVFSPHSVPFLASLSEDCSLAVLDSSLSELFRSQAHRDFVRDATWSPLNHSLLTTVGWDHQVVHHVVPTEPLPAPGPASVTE

| Compound | pEC50 [1] | pEC50 [2] |
| --- | --- | --- |
| C[C@@]1(O)[C@@H](COc2ccc3cc(Br)c(N)nc3c2)C[C@@H](n2ccc3c(Cl)ncnc32)[C@@H]1O [Example 1, (1R,2S,3R,5R)-5-(((2-amino-3-bromoquinolin-7-yl)oxy)methyl)-3-(4-chloro-7H-pyrrolo[2,3-d]pyrimidin-7-yl)-1-methylcyclopentane-1,2-diol] | 9.30 | 7.25 |
| C[C@@]1(O)[C@@H](COc2ccc3cc(Br)c(N)nc3c2)C[C@@H](n2ccc3c(N)ncnc32)[C@@H]1O [Example 2, (1R,2S,3R,5R)-5-(((2-amino-3-bromoquinolin-7-yl)oxy)methyl)-3-(4-amino-7H-pyrrolo[2,3-d]pyrimidin-7-yl)-1-methylcyclopentane-1,2-diol] | 9.30 | – |
| C#C[C@@]1(O)[C@@H](COc2ccc3cc(Br)c(N)nc3c2)O[C@@H](n2ccc3c(N)ncnc32)[C@@H]1O [Example 3, (2R,3S,4R,5R)-2-(((2-amino-3-bromoquinolin-7-yl)oxy)methyl)-5-(4-amino-7H-pyrrolo[2,3-d]pyrimidin-7-yl)-3-ethynyltetrahydrofuran-3,4-diol] | 9.10 | 6.71 |
| C[C@]1(CCc2ccc3cc(Br)c(N)nc3c2)O[C@@H](n2ccc3c(N)ncnc32)[C@H](O)[C@]1(C)O [Example 4, (2R,3S,4R,5R)-2-(2-(2-amino-3-bromoquinolin-7-yl)ethyl)-5-(4-amino-7H-pyrrolo[2,3-d]pyrimidin-7-yl)-2,3-dimethyltetrahydrofuran-3,4-diol] | 8.62 | 6.54 |
| Nc1nc2cc(O[C@H]3CC[C@@]4(O)[C@@H]3O[C@@H](n3ccc5c(Cl)ncnc53)[C@@H]4O)ccc2cc1Br [Example 5, (2R,3R,3aS,6S,6aR)-6-((2-amino-3-bromoquinolin-7-yl)oxy)-2-(4-chloro-7H-pyrrolo[2,3-d]pyrimidin-7-yl)hexahydro-2H-cyclopenta[b]furan-3,3a-diol] | 9.10 | – |
| Nc1nc2cc(O[C@H]3CC[C@@]4(O)[C@@H]3O[C@@H](n3ccc5c(N)ncnc53)[C@@H]4O)ccc2cc1Br [Example 6, (2R,3R,3aS,6S,6aR)-6-((2-amino-3-bromoquinolin-7-yl)oxy)-2-(4-amino-7H-pyrrolo[2,3-d]pyrimidin-7-yl)hexahydro-2H-cyclopenta[b]furan-3,3a-diol] | 9.22 | – |
| Cc1ncnc2c1ccn2[C@@H]1O[C@@H]2[C@@H](Oc3ccc4cc(Br)c(N)nc4c3)CC[C@]2(O)[C@H]1O [Example 7, (2R,3R,3aS,6S,6aR)-6-((2-amino-3-bromoquinolin-7-yl)oxy)-2-(4-methyl-7H-pyrrolo[2,3-d]pyrimidin-7-yl)hexahydro-2H-cyclopenta[b]furan-3,3a-diol] | 9.15 | – |
| Cc1ncnc2c1ccn2[C@@H]1O[C@@H]2[C@H](Cc3ccc4cc(Br)c(N)nc4c3)CC[C@]2(O)[C@H]1O [Example 8, (2R,3R,3aS,6S,6aR)-6-((2-amino-3-bromoquinolin-7-yl)methyl)-2-(4-methyl-7H-pyrrolo[2,3-d]pyrimidin-7-yl)hexahydro-2H-cyclopenta[b]furan-3,3a-diol] | 9.30 | – |
| Nc1nc2cc(C[C@@H]3CC[C@@]4(O)[C@@H]3O[C@@H](n3ccc5c(N)ncnc53)[C@@H]4O)ccc2cc1Br [Example 9, (2R,3R,3aS,6S,6aR)-6-((2-amino-3-bromoquinolin-7-yl)methyl)-2-(4-amino-7H-pyrrolo[2,3-d]pyrimidin-7-yl)hexahydro-2H-cyclopenta[b]furan-3,3a-diol] | 9.52 | – |
| C[C@@]1(O)[C@@H](COc2ccc3cc(Br)c(N)nc3c2)O[C@@H](n2ccc3c(N)ncnc32)[C@@H]1O [Example 10, (2R,3S,4R,5R)-2-(((2-amino-3-bromoquinolin-7-yl)oxy)methyl)-5-(4-amino-7H-pyrrolo[2,3-d]pyrimidin-7-yl)-3-methyltetrahydrofuran-3,4-diol] | 9.30 | 7.66 |
| C[C@@]1(O)[C@@H](COc2ccc3cc(Br)c(N)nc3c2)O[C@@H](n2ccc3c(Cl)ncnc32)[C@@H]1O [Example 11, (2R,3S,4R,5R)-2-{[(2-amino-3-bromoquinolin-7-yl)oxy]methyl}-5-(4-chloro-7H-pyrrolo[2,3-d]pyrimidin-7-yl)-3-methyltetrahydrofuran-3,4-diol] | 9.05 | 6.30 |
| C[C@]1(CCc2ccc3cc(Br)c(N)nc3c2)C[C@@H](n2ccc3c(N)ncnc32)[C@H](O)[C@@H]1O [Example 15, (1S,2R,3S,5R)-3-[2-(2-amino-3-bromo-7-quinolinyl)ethyl]-5-(4-amino-7H-pyrrolo[2,3-d]pyrimidin-7-yl)-3-methyl-1,2-cyclopentanediol] | 9.10 | – |

Further lines, results first:

| pEC50 [1] | pEC50 [2] | Compound |
| --- | --- | --- |
| 7.48 | 4.68 | COc1ncnc2c1ccn2[C@@H]1O[C@](C)(COc2ccc3cc(Br)c(N)nc3c2)[C@@H](O)[C@H]1O [Example 12, (2R,3S,4R,5R)-2-(((2-amino-3-bromoquinolin-7-yl)oxy)methyl)-5-(4-methoxy-7H-pyrrolo[2,3-d]pyrimidin-7-yl)-2-methyltetrahydrofuran-3,4-diol] |
| 9.30 | 7.05 | C[C@]1(COc2ccc3cc(Br)c(N)nc3c2)O[C@@H](n2ccc3c(N)ncnc32)[C@H](O)[C@@H]1O [Example 13, (2R,3S,4R,5R)-2-(((2-amino-3-bromoquinolin-7-yl)oxy)methyl)-5-(4-amino-7H-pyrrolo[2,3-d]pyrimidin-7-yl)-2-methyltetrahydrofuran-3,4-diol] |
| 8.89 | 6.74 | C[C@@]1(O)[C@@H](CCc2ccc3cc(Br)c(N)nc3c2)O[C@@H](n2ccc3c(N)ncnc32)[C@@H]1O [Example 14, (2R,3S,4R,5R)-2-(2-(2-amino-3-bromoquinolin-7-yl)ethyl)-5-(4-amino-7H-pyrrolo[2,3-d]pyrimidin-7-yl)-3-methyltetrahydrofuran-3,4-diol] |
| 9.40 | – | Cc1ncnc2c1ccn2[C@@H]1C[C@@H]2[C@H](Cc3ccc4cc(F)c(N)nc4c3)CC[C@]2(O)[C@H]1O [Example 16, (1S,2R,3aR,4S,6aR)-4-((2-amino-3-fluoroquinolin-7-yl)methyl)-2-(4-methyl-7H-pyrrolo[2,3-d]pyrimidin-7-yl)hexahydropentalene-1,6a(1H)-diol] |
| 9.52 | – | Cc1ncnc2c1ccn2[C@@H]1C[C@@H]2[C@H](Cc3ccc4cc(Cl)c(N)nc4c3)CC[C@]2(O)[C@H]1O [Example 17, (1S,2R,3aR,4S,6aR)-4-((2-amino-3-chloroquinolin-7-yl)methyl)-2-(4-methyl-7H-pyrrolo[2,3-d]pyrimidin-7-yl)hexahydropentalene-1,6a(1H)-diol] |
| 9.40 | 6.64 | Cc1ncnc2c1ccn2[C@@H]1C[C@@H]2[C@@H](Cc3ccc4cc(F)c(N)nc4c3)CC[C@]2(O)[C@H]1O [Example 18, (1S,2R,3aR,4R,6aR)-4-((2-amino-3-fluoroquinolin-7-yl)methyl)-2-(4-methyl-7H-pyrrolo[2,3-d]pyrimidin-7-yl)hexahydropentalene-1,6a(1H)-diol] |
| 9.40 | – | Cc1ncnc2c1ccn2[C@@H]1C[C@@H]2[C@H](Cc3ccc4cc(Br)c(N)nc4c3)CC[C@]2(O)[C@H]1O [Example 19, (1S,2R,3aR,4S,6aR)-4-((2-amino-3-bromoquinolin-7-yl)methyl)-2-(4-methyl-7H-pyrrolo[2,3-d]pyrimidin-7-yl)hexahydropentalene-1,6a(1H)-diol] |
| 9.30 | – | Nc1nc2c(F)c(C[C@@H]3CC[C@@]4(O)[C@@H]3O[C@@H](n3ccc5c(N)ncnc53)[C@@H]4O)ccc2cc1F [Example 20, (2R,3R,3aS,6S,6aR)-6-[(2-amino-3,8-difluoroquinolin-7-yl)methyl]-2-(4-amino-7H-pyrrolo[2,3-d]pyrimidin-7-yl)hexahydro-3aH-cyclopenta[b]furan-3,3a-diol] |
| 9.10 | – | Nc1nc2cc(C[C@@H]3CC[C@@]4(O)[C@@H]3O[C@@H](n3ccc5c(N)ncnc53)[C@@H]4O)cc(F)c2cc1Cl [Example 21, (2R,3R,3aS,6S,6aR)-6-[(2-amino-3-chloro-5-fluoroquinolin-7-yl)methyl]-2-(4-amino-7H-pyrrolo[2,3-d]pyrimidin-7-yl)hexahydro-3aH-cyclopenta[b]furan-3,3a-diol] |
| 9.00 | – | Cc1ncnc2c1ccn2[C@@H]1O[C@@H]2[C@H](Cc3ccc4cc(Cl)c(N)nc4c3F)CC[C@]2(O)[C@H]1O [Example 22, (2R,3R,3aS,6S,6aR)-6-[(2-amino-3-chloro-8-fluoroquinolin-7-yl)methyl]-2-(4-methyl-7H-pyrrolo[2,3-d]pyrimidin-7-yl)hexahydro-3aH-cyclopenta[b]furan-3,3a-diol] |
